Test results: patent US20160326142A1, “PYRAZOLE CARBOXAMIDE COMPOUNDS, COMPOSITIONS AND METHODS OF USE” (Genentech, Inc., priority 2012, published 2016)
pKi: −log10 of the molar value.

Molecular target: T1, ITK (Homo sapiens, UniProt Q08881)
T1 construct: purchased Invitrogen PV3875
T1 sequence (Q08881 1-620): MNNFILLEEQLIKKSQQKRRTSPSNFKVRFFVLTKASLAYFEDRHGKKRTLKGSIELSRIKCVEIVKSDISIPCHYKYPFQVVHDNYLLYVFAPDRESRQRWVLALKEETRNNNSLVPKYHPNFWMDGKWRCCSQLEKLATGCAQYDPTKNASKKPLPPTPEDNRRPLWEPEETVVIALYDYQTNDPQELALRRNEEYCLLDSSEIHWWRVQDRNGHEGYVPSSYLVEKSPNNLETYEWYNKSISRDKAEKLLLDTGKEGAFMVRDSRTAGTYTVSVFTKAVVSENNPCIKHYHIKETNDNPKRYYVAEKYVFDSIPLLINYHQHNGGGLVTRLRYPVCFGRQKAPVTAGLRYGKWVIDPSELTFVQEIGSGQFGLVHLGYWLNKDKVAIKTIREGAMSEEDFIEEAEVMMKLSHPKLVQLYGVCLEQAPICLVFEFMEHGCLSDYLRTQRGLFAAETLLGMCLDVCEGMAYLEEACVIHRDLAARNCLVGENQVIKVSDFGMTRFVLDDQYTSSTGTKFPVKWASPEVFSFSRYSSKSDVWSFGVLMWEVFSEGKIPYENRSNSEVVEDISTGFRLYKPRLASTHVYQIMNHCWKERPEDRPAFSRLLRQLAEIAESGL
Assay: ITK enzyme assay (Caliper or LCMS peptide phosphorylation)
Type: biochemical
Details: purified ITK (Invitrogen PV3875), 20 μM ATP, Ki by Morrison's quadratic equation
Method in brief: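 Purified human ITK peptide phosphorylation, quenched with EDTA (50 mM final) for Caliper LabChip separation or TCA (5% v/v final) for UPLC-MS/MS MRM quantification. Ki derived via Morrison tight-binding equation, corrected for competitive inhibition using ATP concentration relative to Km,app.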

Row | pKi | Compound
1 | 8.52 | O=C(Nc1cnn(Cc2ccccc2)c1)c1n[nH]c2c1CCC1(CCCC1=O)C2 (single isomer, unassigned) [Example 105a, N-(1-benzyl-1H-pyrazol-4-yl)-2-oxo-1′,4′,5′,7′-tetrahydrospiro[cyclopentane-1,6′-indazole]-3′-carboxamide]
2 | 6.62 | O=C(Nc1cnn(Cc2ccccc2)c1)c1n[nH]c2c1CCC1(CCCC1=O)C2 (single isomer, unassigned) [Example 105b, N-(1-benzyl-1H-pyrazol-4-yl)-2-oxo-1′,4′,5′,7′-tetrahydrospiro[cyclopentane-1,6′-indazole]-3′-carboxamide]
3 | 8.52 | CC(c1cccnc1)n1cc(NC(=O)c2n[nH]c3c2CCC(C)(C)C3)cn1 (single isomer, unassigned) [Example 106a, 6,6-dimethyl-N-(1-(1-(pyridin-3-yl)ethyl)-1H-pyrazol-4-yl)-4,5,6,7-tetrahydro-1H-indazole-3-carboxamide]
4 | 8.30 | CC(c1cccnc1)n1cc(NC(=O)c2n[nH]c3c2CCC(C)(C)C3)cn1 (single isomer, unassigned) [Example 106b, 6,6-dimethyl-N-(1-(1-(pyridin-3-yl)ethyl)-1H-pyrazol-4-yl)-4,5,6,7-tetrahydro-1H-indazole-3-carboxamide]
5 | 7.74 | CC(c1ccncc1)n1cc(NC(=O)c2n[nH]c3c2CCC(C)(C)C3)cn1 (single isomer, unassigned) [Example 107a, 6,6-dimethyl-N-(1-(1-(pyridin-4-yl)ethyl)-1H-pyrazol-4-yl)-4,5,6,7-tetrahydro-1H-indazole-3-carboxamide]
6 | 7.85 | CC(c1ccncc1)n1cc(NC(=O)c2n[nH]c3c2CCC(C)(C)C3)cn1 (single isomer, unassigned) [Example 107b, 6,6-dimethyl-N-(1-(1-(pyridin-4-yl)ethyl)-1H-pyrazol-4-yl)-4,5,6,7-tetrahydro-1H-indazole-3-carboxamide]
7 | 7.77 | CC(c1cncc(F)c1)n1cc(NC(=O)c2n[nH]c3c2CCC(C)(C)C3)cn1 (single isomer, unassigned) [Example 108a, N-(1-(1-(5-fluoropyridin-3-yl)ethyl)-1H-pyrazol-4-yl)-6,6-dimethyl-4,5,6,7-tetrahydro-1H-indazole-3-carboxamide]
8 | 8.30 | CC(c1cncc(F)c1)n1cc(NC(=O)c2n[nH]c3c2CCC(C)(C)C3)cn1 (single isomer, unassigned) [Example 108b, N-(1-(1-(5-fluoropyridin-3-yl)ethyl)-1H-pyrazol-4-yl)-6,6-dimethyl-4,5,6,7-tetrahydro-1H-indazole-3-carboxamide]
9 | 8.40 | COc1ccc(C(C)n2cc(NC(=O)c3n[nH]c4c3CCC(C)(C)C4)cn2)cn1 (single isomer, unassigned) [Example 109a, N-(1-(1-(6-methoxypyridin-3-yl)ethyl)-1H-pyrazol-4-yl)-6,6-dimethyl-4,5,6,7-tetrahydro-1H-indazole-3-carboxamide]
10 | 7.68 | COc1ccc(C(C)n2cc(NC(=O)c3n[nH]c4c3CCC(C)(C)C4)cn2)cn1 (single isomer, unassigned) [Example 109b, N-(1-(1-(6-methoxypyridin-3-yl)ethyl)-1H-pyrazol-4-yl)-6,6-dimethyl-4,5,6,7-tetrahydro-1H-indazole-3-carboxamide]
11 | 9.70 | CC1(C)CCc2c(C(=O)Nc3cnn(C(c4cccc(C#N)c4)C4CCS(=O)(=O)CC4)c3)n[nH]c2C1 (single isomer, unassigned) [Example 110a, N-(1-((3-cyanophenyl)(1,1-dioxidotetrahydro-2H-thiopyran-4-yl)methyl)-1H-pyrazol-4-yl)-6,6-dimethyl-4,5,6,7-tetrahydro-1H-indazole-3-carboxamide]
12 | 8.52 | CC1(C)CCc2c(C(=O)Nc3cnn(C(c4cccc(C#N)c4)C4CCS(=O)(=O)CC4)c3)n[nH]c2C1 (single isomer, unassigned) [Example 110b, N-(1-((3-cyanophenyl)(1,1-dioxidotetrahydro-2H-thiopyran-4-yl)methyl)-1H-pyrazol-4-yl)-6,6-dimethyl-4,5,6,7-tetrahydro-1H-indazole-3-carboxamide]
13 | 8.30 | CC1(C)CCc2c(C(=O)Nc3cnn(C(c4ccccc4)C4CCOCC4)c3)n[nH]c2C1 (single isomer, unassigned) [Example 113a, 6,6-dimethyl-N-(1-(phenyl(tetrahydro-2H-pyran-4-yl)methyl)-1H-pyrazol-4-yl)-4,5,6,7-tetra hydro-1H-indazole-3-carboxamide]
14 | 9.52 | CC1(C)CCc2c(C(=O)Nc3cnn(C(c4ccccc4)C4CCOCC4)c3)n[nH]c2C1 (single isomer, unassigned) [Example 113b, 6,6-dimethyl-N-(1-(phenyl(tetrahydro-2H-pyran-4-yl)methyl)-1H-pyrazol-4-yl)-4,5,6,7-tetra hydro-1H-indazole-3-carboxamide]
15 | 9.10 | Cn1ccnc1C(c1cccs1)n1cc(NC(=O)c2n[nH]c3c2CCC(C)(C)C3)cn1 (single isomer, unassigned) [Example 114a, 6,6-dimethyl-N-(1-((1-methyl-1H-imidazol-2-yl)(thiophen-2-yl)methyl)-1H-pyrazol-4-yl)-4,5,6,7-tetrahydro-H-indazole-3-carboxamide]
16 | 7.92 | Cn1ccnc1C(c1cccs1)n1cc(NC(=O)c2n[nH]c3c2CCC(C)(C)C3)cn1 (single isomer, unassigned) [Example 114b, 6,6-dimethyl-N-(1-((1-methyl-1H-imidazol-2-yl)(thiophen-2-yl)methyl)-1H-pyrazol-4-yl)-4,5,6,7-tetrahydro-H-indazole-3-carboxamide]
17 | 9.70 | CC1(C)CCc2c(C(=O)Nc3cnn(C(c4cccc(Cl)c4)C4CCOCC4)c3)n[nH]c2C1 (single isomer, unassigned) [Example 115a, N-(1-((3-chlorophenyl)(tetrahydro-2H-pyran-4-yl)methyl)-1H-pyrazol-4-yl)-6,6-dimethyl-4,5,6,7-tetrahydro-1H-indazole-3-carboxamide]
18 | 8.15 | CC1(C)CCc2c(C(=O)Nc3cnn(C(c4cccc(Cl)c4)C4CCOCC4)c3)n[nH]c2C1 (single isomer, unassigned) [Example 115b, N-(1-((3-chlorophenyl)(tetrahydro-2H-pyran-4-yl)methyl)-1H-pyrazol-4-yl)-6,6-dimethyl-4,5,6,7-tetrahydro-1H-indazole-3-carboxamide]
19 | > 10.00 | CC12Cc3[nH]nc(C(=O)Nc4cnn(C(c5cccnc5)C5CS(=O)(=O)C5)c4)c3CC1C2 (single isomer, unassigned) [Example 116a, N-(1-((1,1-dioxidothietan-3-yl)(pyridin-3-yl)methyl)-1H-pyrazol-4-yl)-5a-methyl-1,4,4a,5,5a,6-hexahydrocyclopropa[f]indazole-3-carboxamide]
20 | 8.70 | CC12Cc3[nH]nc(C(=O)Nc4cnn(C(c5cccnc5)C5CS(=O)(=O)C5)c4)c3CC1C2 (single isomer, unassigned) [Example 116b, N-(1-((1,1-dioxidothietan-3-yl)(pyridin-3-yl)methyl)-1H-pyrazol-4-yl)-5a-methyl-1,4,4a,5,5a,6-hexahydrocyclopropa[f]indazole-3-carboxamide]
21 | 9.70 | CC1(C)CCc2c(C(=O)Nc3cnn(C(c4cccnc4)C4CS(=O)(=O)C4)c3)n[nH]c2C1 (single isomer, unassigned) [Example 117a]
22 | 8.22 | CC1(C)CCc2c(C(=O)Nc3cnn(C(c4cccnc4)C4CS(=O)(=O)C4)c3)n[nH]c2C1 (single isomer, unassigned) [Example 117b]
23 | 10.00 | CC1(C)CCc2c(C(=O)Nc3cnn(C(c4cccc(C(C)(C)O)c4)C4CCS(=O)(=O)CC4)c3)n[nH]c2C1 (single isomer, unassigned) [Example 119a]
24 | 8.40 | CC1(C)CCc2c(C(=O)Nc3cnn(C(c4cccc(C(C)(C)O)c4)C4CCS(=O)(=O)CC4)c3)n[nH]c2C1 (single isomer, unassigned) [Example 119b]
25 | 10.00 | CC12Cc3[nH]nc(C(=O)Nc4cnn(C(c5ccccc5)C5CC[S+]([O-])CC5)c4)c3CC1C2 (single isomer, unassigned) [Example 120a, 5a-methyl-N-(1-((1-oxidotetrahydro-2H-thiopyran-4-yl)(phenyl)methyl)-1H-pyrazol-4-yl)-1,4,4a,5,5a,6-hexahydrocyclopropa[f]indazole-3-carboxamide]
26 | > 10.00 | CC12Cc3[nH]nc(C(=O)Nc4cnn(C(c5ccccc5)C5CC[S+]([O-])CC5)c4)c3CC1C2 (single isomer, unassigned) [Example 120b, 5a-methyl-N-(1-((1-oxidotetrahydro-2H-thiopyran-4-yl)(phenyl)methyl)-1H-pyrazol-4-yl)-1,4,4a,5,5a,6-hexahydrocyclopropa[f]indazole-3-carboxamide]
27 | 8.22 | CC1(C)CCc2c(C(=O)Nc3cnn(C(CCN4CC(F)(F)C4)c4ccccc4)c3)n[nH]c2C1 (single isomer, unassigned) [Example 121a, N-(1-(3-(3,3-difluoroazetidin-1-yl)-1-phenylpropyl)-1H-pyrazol-4-yl)-6,6-dimethyl-4,5,6,7-tetrahydro-1H-indazole-3-carboxamide]
